The results in this text go back to US9556139B2, “6-substituted phenoxychroman carboxylic acid derivatives” (Array BioPharma Inc., priority 2008, dated 2017).

For this test, the target named is human DP2 (Homo sapiens (Human), UniProt Q9Y5Y4). Nature of the test: DP-2 Binding Inhibition Assay (3H-PGD2 binding to membranes of K562 cells expressing DP2). The settings on record: read-out: EC50 (nM) 4% HSA; inhibition of 3H-PGD2 binding, 4% HSA. The gist of the method:
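Radioligand filtration binding: ³H-PGD2 displacement from DP2-expressing K562 cell membranes, 60 min, room temperature, pH 7.4, under 0.1% BSA, 1% HSA or 4% HSA.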

Chain of human DP2 (Q9Y5Y4 whole entry): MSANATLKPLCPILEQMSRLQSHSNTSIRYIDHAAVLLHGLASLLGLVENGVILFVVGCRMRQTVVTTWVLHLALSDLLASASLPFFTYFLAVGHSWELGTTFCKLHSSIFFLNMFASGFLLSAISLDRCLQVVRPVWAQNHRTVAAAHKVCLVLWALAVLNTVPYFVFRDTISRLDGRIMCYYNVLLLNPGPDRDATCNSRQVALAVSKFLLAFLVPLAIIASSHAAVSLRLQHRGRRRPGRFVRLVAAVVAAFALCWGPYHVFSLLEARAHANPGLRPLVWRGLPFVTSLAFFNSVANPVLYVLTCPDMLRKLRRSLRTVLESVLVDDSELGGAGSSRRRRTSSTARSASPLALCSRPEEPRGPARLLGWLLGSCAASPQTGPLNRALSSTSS

Usually EC50 stands for the concentration needed to bring the measured effect to its halfway point. Take `COc1cccc(CCNC(=O)c2ccc(Oc3cc4c(cc3Cl)C(C(=O)O)CCO4)cc2)c1` (centres unmarked) [Example 143, Sodium 6-chloro-7-(4-(3-methoxyphenethylcarbamoyl)phenoxy)chroman-4-carboxylate]: the concentration giving a half-maximal response (EC50) worked out at 1010 nM.

With `O=C(NCCc1cccc(F)c1)c1ccc(Oc2cc3c(cc2Cl)C(C(=O)O)CCO3)cc1` (centres unmarked) [Example 145, Sodium 6-chloro-7-(4-(3-fluorophenethylcarbamoyl)phenoxy)chroman-4-carboxylate], the concentration giving a half-maximal response (EC50) was 655 nM. The figure for `Cc1cccc(CCNC(=O)c2ccc(Oc3cc4c(cc3Cl)C(C(=O)O)CCO4)cc2)c1` (centres unmarked) [Example 146, Sodium 6-chloro-7-(4-(3-methylphenethylcarbamoyl)phenoxy)chroman-4-carboxylate] is 608 nM. As to `O=C(NCCc1ccc(SC(F)(F)F)cc1)c1ccc(Oc2cc3c(cc2Cl)C(C(=O)O)CCO3)cc1` (centres unmarked) [Example 147, Sodium 6-chloro-7-(4-(4-(trifluoromethylthio)phenethylcarbamoyl)phenoxy)chroman-4-carboxylate], the EC50 is 240 nM. The figure for `O=C(NCCc1cc(Cl)cc(Cl)c1)c1ccc(Oc2cc3c(cc2Cl)C(C(=O)O)CCO3)cc1` (centres unmarked) [Example 148, Sodium 6-chloro-7-(4-(3,5-dichlorophenethylcarbamoyl)phenoxy)chroman-4-carboxylate] is 196 nM. In the case of `O=C(NCCc1cccc(Oc2ccccc2)c1)c1ccc(Oc2cc3c(cc2Cl)C(C(=O)O)CCO3)cc1` (centres unmarked) [Example 149, Sodium 6-chloro-7-(4-(3-phenoxyphenethylcarbamoyl)phenoxy)chroman-4-carboxylate] it was 280 nM; in that of `O=C(NCCc1cccc(Cl)c1)c1ccc(Oc2cc3c(cc2Cl)C(C(=O)O)CCO3)cc1` (centres unmarked) [Example 150, Sodium 6-chloro-7-(4-(3-chlorophenethylcarbamoyl)phenoxy)chroman-4-carboxylate], 341 nM; in that of `O=C(NCCc1ccccc1C(F)(F)F)c1ccc(Oc2cc3c(cc2Cl)C(C(=O)O)CCO3)cc1` (centres unmarked) [Example 152, Sodium 6-chloro-7-(4-(2-(trifluoromethyl)phenethylcarbamoyl)phenoxy)chroman-4-carboxylate], 160 nM.

Take `O=C(NCCc1ccccc1F)c1ccc(Oc2cc3c(cc2Cl)C(C(=O)O)CCO3)cc1` (centres unmarked) [Example 153, Sodium 6-chloro-7-(4-(2-fluorophenethylcarbamoyl)phenoxy)chroman-4-carboxylate]: the EC50 was found to be 521 nM.

Take `CC(C)(C)C1CCC(NC(=O)c2ccc(Oc3cc4c(cc3Cl)C(C(=O)O)CCO4)cc2)CC1` (centres unmarked) [Example 156, 7-(4-(4-tert-butylcyclohexylcarbamoyl)phenoxy)-6-chlorochroman-4-carboxylic acid]: the EC50 came out at 509 nM. The figure for `CC1(C)CCC(NC(=O)c2ccc(Oc3cc4c(cc3Cl)C(C(=O)O)CCO4)cc2)CC1` (centres unmarked) [Example 157, 6-Chloro-7-(4-(4,4-dimethylcyclohexylcarbamoyl)phenoxy)chroman-4-carboxylic acid] is 1580 nM; for `O=C(NC1CCCC(c2ccccc2)C1)c1ccc(Oc2cc3c(cc2Cl)C(C(=O)O)CCO3)cc1` (centres unmarked) [Example 158, 6-Chloro-7-(4-(3-phenylcyclohexylcarbamoyl)phenoxy)chroman-4-carboxylic acid] it is 1650 nM; for `Cc1ccc(C2CCCC(NC(=O)c3ccc(Oc4cc5c(cc4Cl)C(C(=O)O)CCO5)cc3)C2)cc1` (centres unmarked) [Example 160, 6-Chloro-7-(4-(3-(4-methylphenyl)cyclohexylcarbamoyl)phenoxy)chroman-4-carboxylic acid] it is 350 nM.

On to `COc1ccc(C2CCCC(NC(=O)c3ccc(Oc4cc5c(cc4Cl)C(C(=O)O)CCO5)cc3)C2)cc1` (centres unmarked) [Example 161, 6-Chloro-7-(4-(3-(4-methoxyphenyl)cyclohexylcarbamoyl)phenoxy)chroman-4-carboxylic acid], for which the EC50 was found to be 1120 nM. The figure for `CSc1ccc(C2CCCC(NC(=O)c3ccc(Oc4cc5c(cc4Cl)C(C(=O)O)CCO5)cc3)C2)cc1` (centres unmarked) [Example 162, 6-Chloro-7-(4-(3-(4-(methylthio)phenyl)cyclohexylcarbamoyl)phenoxy)chroman-4-carboxylic acid] is 430 nM; for `COc1cccc(C2CCCC(NC(=O)c3ccc(Oc4cc5c(cc4Cl)C(C(=O)O)CCO5)cc3)C2)c1` (centres unmarked) [Example 163, 6-Chloro-7-(4-(3-(3-methoxyphenyl)cyclohexylcarbamoyl)phenoxy)chroman-4-carboxylic acid] it is 509 nM.

On to `O=C(NC1CCCC(c2ccc(Cl)cc2)C1)c1ccc(Oc2cc3c(cc2Cl)C(C(=O)O)CCO3)cc1` (centres unmarked) [Example 164, Sodium 6-chloro-7-(4-(3-(4-chlorophenyl)cyclohexylcarbamoyl)phenoxy)chroman-4-carboxylate], for which the half-maximal effective concentration (EC50) stood at 183 nM. The figure for `O=C(NC1CCC(c2ccccc2)C1)c1ccc(Oc2cc3c(cc2Cl)C(C(=O)O)CCO3)cc1` (centres unmarked) [Example 165, 6-chloro-7-(4-(3-phenylcyclopentylcarbamoyl)phenoxy)chroman-4-carboxylic acid] is 401 nM. In the case of `Cc1ccc(C2CCC(NC(=O)c3ccc(Oc4cc5c(cc4Cl)C(C(=O)O)CCO5)cc3)C2)cc1` (centres unmarked) [Example 166, 6-Chloro-7-(4-(3-p-tolylcyclopentylcarbamoyl)phenoxy)chroman-4-carboxylic acid] it was 272 nM; in that of `O=C(NC1CCC(c2cccc(Cl)c2)C1)c1ccc(Oc2cc3c(cc2Cl)C(C(=O)O)CCO3)cc1` (centres unmarked) [Example 167, 6-Chloro-7-(4-(3-(3-chlorophenyl)cyclopentylcarbamoyl)phenoxy)chroman-4-carboxylic acid], 179 nM. In the case of `O=C(NC1CCC(c2ccc(Cl)cc2)C1)c1ccc(Oc2cc3c(cc2Cl)C(C(=O)O)CCO3)cc1` (centres unmarked) [Example 168, Sodium 6-chloro-7-(4-(3-(4-chlorophenyl)cyclopentylcarbamoyl)phenoxy)chroman-4-carboxylate] it was 302 nM. For the molecule `Cc1cccc(C2CCC(NC(=O)c3ccc(Oc4cc5c(cc4Cl)C(C(=O)O)CCO5)cc3)C2)c1` (centres unmarked) [Example 169, Sodium 6-chloro-7-(4-(3-(3-methylphenyl)cyclopentylcarbamoyl)phenoxy)chroman-4-carboxylate], the 50% effective concentration (EC50) turned out to be 204 nM. The figure for `O=C(NC1CCC(c2cccc(C(F)(F)F)c2)C1)c1ccc(Oc2cc3c(cc2Cl)C(C(=O)O)CCO3)cc1` (centres unmarked) [Example 170, Sodium 6-chloro-7-(4-(3-(3-(trifluoromethyl)phenyl)cyclopentylcarbamoyl)phenoxy)chroman-4-carboxylate] is 298 nM; for `O=C(NC1CCC(c2cccc(F)c2)C1)c1ccc(Oc2cc3c(cc2Cl)C(C(=O)O)CCO3)cc1` (centres unmarked) [Example 171, Sodium 6-chloro-7-(4-(3-(3-fluorophenyl)cyclopentylcarbamoyl)phenoxy)chroman-4-carboxylate] it is 333 nM; for `CSc1cccc(C2CCC(NC(=O)c3ccc(Oc4cc5c(cc4Cl)C(C(=O)O)CCO5)cc3)C2)c1` (centres unmarked) [Example 172, Sodium 6-chloro-7-(4-(3-(3-(methylthio)phenyl)cyclopentylcarbamoyl)phenoxy)chroman-4-carboxylate] it is 282 nM. In the case of `O=C(NC1CCC(c2ccc(Cl)c(Cl)c2)C1)c1ccc(Oc2cc3c(cc2Cl)C(C(=O)O)CCO3)cc1` (centres unmarked) [Example 173, Sodium 6-chloro-7-(4-(3-(3,4-dichlorophenyl)cyclopentylcarbamoyl)phenoxy)chroman-4-carboxylate] it was 327 nM.
